Data: patent US9765063B2, “Amido compounds as RORγt modulators and uses thereof” (New York University, priority 2011, dated 2017)
“Also recorded” adds a separate entry of the source. Where two headings read alike, the source gives them in different places.

What was measured:
Type in all cases: cell-based
[1] = test system: human Th1 cell differentiation; assay: Human Th1 cell differentiation, IFNγ production (counter-screen, FIG. 2); conditions: FIG. 2, FACS, 0.5 μM, naive CD4 T cells, IL12 and IL2
Method: (§1) For Th1 differentiation, IL12 (10 ng/ml) and IL2 (100 U/ml) were added to naive CD4 T cell cultures instead of TGFβ and IL6.

[2] = test system: human Th17 cell differentiation; assay: Human Th17 cell differentiation (FACS, FIG. 2); conditions: FIG. 2, FACS, 0.5 μM
Method: • 1) S2 cell reporter system: Identified hits from HTS are further screened and their specificity confirmed by testing against RORγ-luc, VP16-luc, RORα-luc, and DHR3-luc reporter S2 cell lines. Compounds either having no activity on VP16, RORα, and DHR3 or having ten times higher IC50 values on such reporters are selected for further tests. • 2) Cytokine induced mouse Th17 cells differentiation. Effects on mouse endogenous RORγt in a relevant physiological setting were determined by testing compounds in the Th17 cell differentiation assay. Compounds having RORγt inhibitory activity are predicted to suppress Th17 cell differentiation. Th1 or regulatory T cell differentiation was used as a counter-screen method to select specific compounds that only affect Th17 cell differentiation without having pleiotrophic effects on general T cell proliferation or cytokine production. • 3) ROR dependent Th17 cell differentiation. Compounds were further tested, by examining their effects on T cells expressing RORα or RORγ. […] Compounds affecting IL17a production or ROR regulatory pathways, however, are expected to inhibit both. • 4) Human Th17 cell differentiation. Compound effects on human RORγt will be tested by treating human cord blood CD4 T cells with select compounds to determine if such compounds alter differentiation into Th17 lineages.
as §1

[3] = target: T1, RORγt (Mus musculus, UniProt P51450); assay: RORγt S2 cell reporter assay (Gal4-RORγt fusion, UAS-luciferase)
T1 construct: expressed in transfected cells; the other entry of the earlier key: GAL4 (P04386, Regulatory protein GAL4)
T1 sequence (P51450 with tags, fused parts or gaps): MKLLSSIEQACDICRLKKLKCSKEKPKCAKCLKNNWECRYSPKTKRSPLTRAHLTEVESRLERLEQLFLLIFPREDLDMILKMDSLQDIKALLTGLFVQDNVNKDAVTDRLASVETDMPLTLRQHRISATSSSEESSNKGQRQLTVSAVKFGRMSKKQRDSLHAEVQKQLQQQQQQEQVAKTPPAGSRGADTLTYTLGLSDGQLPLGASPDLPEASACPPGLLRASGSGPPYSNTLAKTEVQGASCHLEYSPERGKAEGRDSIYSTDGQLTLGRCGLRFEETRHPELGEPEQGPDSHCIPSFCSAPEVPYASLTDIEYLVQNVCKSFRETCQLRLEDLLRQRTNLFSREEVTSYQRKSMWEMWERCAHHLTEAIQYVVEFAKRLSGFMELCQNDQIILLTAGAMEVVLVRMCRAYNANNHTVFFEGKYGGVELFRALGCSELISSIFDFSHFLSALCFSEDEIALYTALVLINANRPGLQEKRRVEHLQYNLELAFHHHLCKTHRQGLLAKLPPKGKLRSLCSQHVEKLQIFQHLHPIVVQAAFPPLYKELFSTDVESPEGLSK
Description: Methods: The Drosophila S2 cell line was originally purchased from Invitrogen and was maintained in Schneider's medium supplemented with 10% heat-inactivated bovine fetal calf serum and antibiotics (Invitrogen). […] The resulting chimeric gene was subcloned into the copper inducible pMT/V5-His A vector (available from Invitrogen).
Renilla luciferase construct under the polIII promoter was obtained from Dr. Dasgupta's laboratory (NYU medical center). In order to generate stable cell lines, cells were co-transfected with pMT-G4DBD-RORγt, pMT-G4DBD-RORα, pMT-G4DBD-DHR3, or pMT-G4DBDVP16 and pHygro plasmids (Invitrogen) and screened for resistant colonies in the presence of hygromycin (0.3 mg/mL). […] Using similar methods, stable clones with genomic integration of the luciferase reporters and other reporters were generated such as pMT-RORα_luc, pMT-DHR3_luc, or pMT-VP16_luc.
Methods: 600 G4DBD-RORγ/γt-luc reporter (#25) or G4DBD-VP16-luc reporter cells were distributed into each well of 1,536-well white bottom plates in 4 μl S2 cell culture volume containing hygromicin (300 μg/ml) and puromycin (2 μg/ml). […] After one-hour incubation, 1 of culture medium solution containing copper sulfate (to final 0.7 mM) and 10 μM RORγ/γt antagonists were added to each well. After 20-hour incubation at ambient temperature, 1.5 μl firefly luciferase detection mix was added and the luciferase activities were measured in 10 min. ViewLux luminometers were used for measuring luciferase signal.
A cell-based reporter assay was used to detect RORγt-mediated activity. This assay, called RORγt employed Drosophila Schneider cells that were stably transfected with two vectors: a gene expressing a fusion of the Gal4 DNA binding domain and RORγt transactivation domain under the control of the metallothionine promoter and a Photinus luciferase reporter regulated by the Gal4 binding site enhancer, UAS. […] Cells (600/well) were dispensed into white solid 1536-well plates (Greiner) using a solenoid-based dispenser. Following transfer of […] compound or DMSO vehicle by a pin tool, the plates were incubated 1 hr at ambient temperature, and 1 uL/well copper sulfate (700 uM final concentration) was added. The plates were centrifuged 15 s at 1000 RPM and incubated 20 hr at ambient temperature. After addition of 1.5 uL Photinus luciferase detection reagent, the plates were incubated 10 min at ambient temperature and then read by a ViewLux (Perkin Elmer) to detect luminescence. […] Efficacy is expressed as % of the maximal response of control inhibitor (Digoxin), set at 100%.

[4] = test system: RORγt; assay: RORγt overexpression dependent IL17a production in human CD4 T cells (FIG. 3); conditions: FIG. 3, FACS, 0.5 μM
Method: (§2) Briefly, CD3+ CD4+ CD45RA+ naive human T cells were isolated from peripheral blood derived from healthy donors. The naive T cells were cultured in XVIVO-20 (Lonza) medium for 7 days in the presence of IL2 and stimulatory CD3 and CD28 antibodies. Cells were infected with lentivirus encoding human RORα or RORγ and compound or DMSO was added on day 2. FACS plot analysis is shown after gating on GFP expressing (virus infected) cells.

[5] = test system: mouse Th17 cell differentiation; assay: Th17 assay: mouse Th17 polarization (IL-17a producing cells, FACS); conditions: for IC50: naive mouse CD4 T cells, TGFβ and IL6, compounds added Day 1, analyzed Day 4, read-out: Th 17 IC50
Method: (§3) Percentage of DMSO treated IL-17a producing cells was set at 100. Naive mouse CD4 T cells (CD25^−, CD62L^+, and CD44^low-int) were sorted and cultured with CD3/CD28 stimulatory antibodies in the presence of TGFβ (0.1 ng/ml) and IL6 (20 ng/ml). Compounds were added on Day 1 and cells were analyzed on Day 4. For intracellular cytokine staining, cells were incubated for 5 h with phorbol ester (50 ng/ml; Sigma), ionomycin (500 ng/ml; Sigma) and GolgiStop (BD). When needed, surfaces were stained by incubation for 15 min on ice with PECy7-conjugated CD4 (BD Biosciences). The Cytofix/Cytoperm buffer set (BD) was used for intracellular staining. Cells were fixed and made permeable for 30 min on ice and were stained for 30 min on ice in permeabilization buffer with Alexa647-conjugated anti-IL17a (eBioscience) and PE-conjugated anti-IFNg (eBioscience). An LSR II (BD Biosciences) and FlowJo software (Tree Star) were used for flow cytometry. RORg IC50 value acquired from the S2 cell reporter assay is listed for comparison.
as §3, with “With respect to the methodological details pertaining to FIG. 1, naive” for “Percentage of DMSO treated IL-17a producing cells was set at 100. Naive mouse”, “(BD).” for “(BD). When needed, surfaces were stained by incubation for 15 min on ice with PECy7-conjugated CD4 (BD Biosciences).”, “anti-IFNγ” for “anti-IFNg”, “cytometry.” for “cytometry. RORg IC50 value acquired from the S2 cell reporter assay is listed for comparison.”

[6] = test system: RORα; assay: RORα overexpression dependent IL17a production in human CD4 T cells (FIG. 3); conditions: FIG. 3, FACS, 0.5 μM; listed as NCGC00238427
Method: as §2

Emax ([3]; Table 1, % of the maximal response of control inhibitor (Digoxin), set at 100%, read-out: Efficacy (%)) [%]	IC50 ([3]; Table 1, Drosophila S2 cells, luciferase reporter, read-out: IC50) [µM]	IC50 ([3]; Table 2, from the S2 cell reporter assay, listed for comparison, read-out: S2 cell RORg IC50) [µM]	SMILES	Th1 cell differentiation, as measured by IFNγ production [1]	human Th17 cell differentiation [2]	RORγt overexpression dependent IL17a production in human CD4 T cells [4]	IC50 [5] [µM]	Th1 cell differentiation, as measured by IFNγ production ([1]; listed as NCGC00238427)	human Th17 cell differentiation ([2]; listed as NCGC00238427)	RORα overexpression dependent IL17a production in human CD4 T cells [6]	RORγt overexpression dependent IL17a production in human CD4 T cells ([4]; listed as NCGC00238427)	mouse Th17 cell differentiation, as measured by IL17a production ([5]; FIG. 1, FACS, at the indicated concentrations)
88.7	1 to 10	1 to 10	COc1cc(O)c(C(CC(=O)N2CC(C)CC(C)C2)c2cccc(C(=O)O)c2)c(OC)c1 (stereo not shown) [Compound 101, 3-(3-(3,5-Dimethylpiperidin-1-yl)-1-(2-hydroxy-4,6-dimethoxyphenyl)-3-oxopropyl)benzoic acid]	neither of which exhibits the ability to suppress human Th17 or Th1 cell differentiation	neither of which exhibits the ability to suppress human Th17 or Th1 cell differentiation	neither of which exhibits the ability to inhibit RORγt dependent human Th17 cell differentiation	> 20					
			COc1cc(O)c(C(CC(=O)N2CC(C)CC(C)C2)c2ccc3c(c2)OCO3)c(OC)c1 (stereo not shown) [RC1, reference compound]				1 to 10	does not inhibit Th1 cell differentiation	selectively suppress human Th17; also recorded: selectively suppresses human Th17 cell differentiation	unaffected	selectively inhibit RORγt dependent; also recorded: selectively inhibits RORγt overexpression dependent IL17a production	suppress mouse Th17 cell differentiation
